Test results published in BindingDB's records for doi:10.1021/acs.jmedchem.6b01918 (Bristol Myers Squibb, 2017).
pIC50: −log10 of the molar value.

Assay: Inhibition of Nav1.7 in C57BL/6 […] embryonic DRG cells assessed as blockade of spontaneous neuronal firing by Maestro microelectrode array analysis

N[C@H]1CC[C@@H](CNc2cc(F)c(S(=O)(=O)Nc3nccs3)cc2Cl)CC1
pIC50: 8.92
